{
  "source": "patent US9572814B2",
  "about": "“Methods of improving the pharmacokinetics of doxepin” (Pernix Sleep, Inc., priority 2006, dated 2017)",
  "key": {"clinical": {"assay": "clinical", "settings": "both, human, plasma, po, 6 milligram"}, "[1]": {"settings": "calculated from geometric LS means, single 6 milligram dose"}, "[2]": {"settings": "plasma, single 6 milligram doxepin tablet, fasted (N = 15)"}, "[3]": {"settings": "plasma, single 6 milligram doxepin tablet, fed (N = 16)"}, "[4]": {"settings": "ratio of geometric LS means, 6 milligram doxepin tablet"}, "[5]": {"settings": "single 6 milligram doxepin tablet, fasted (N 15)"}, "[6]": {"settings": "single 6 milligram doxepin tablet, fed (N 16)"}},
  "note": "Read-outs that look alike come from different tables or passages of the source.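 Also: healthy young adult men and women, dosed in the morning. Doxepin in plasma by validated HPLC-MS/MS (LLOQ 0.05 ng/mL), parameters by noncompartmental analysis on actual elapsed time after dosing.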",
  "data": [
    {"smiles": "CN(C)CCC=C1c2ccccc2COc2ccccc21", "note": "[doxepin]", "values": [
      {"measurement": "time postdose at which detectable plasma levels were first observed", "setting": "both fed and fasted states (six and five subjects, respectively)", "value": 30, "unit": "min"},
      {"measurement": "time postdose up to which plasma doxepin concentrations remained quantifiable", "setting": "both treatments (fed and fasted), lower limit of quantification 0.05 ng/mL", "value": "up to 48 hours"},
      {"measurement": "AUC0-∞, Effect of Food (% of fasted state)", "setting": "[1]", "value": "141 % of fasted state"},
      {"measurement": "Cmax, Effect of Food (% of fasted state)", "setting": "[1]", "value": "115 % of fasted state"},
      {"measurement": "Tmax, Effect of Food (% of fasted state)", "setting": "median Tmax, single 6 milligram dose", "value": "200 % of fasted state"},
      {"measurement": "AUC0-Tlast, arithmetic mean", "setting": "[2]", "value": 12.6, "unit": "ng·h/mL"},
      {"measurement": "AUC0-∞, arithmetic mean", "setting": "[2]", "value": 14.1, "unit": "ng·h/mL"},
      {"measurement": "t1/2, arithmetic mean", "setting": "[2]", "value": 14.4, "unit": "h"},
      {"measurement": "λz, arithmetic mean", "setting": "[2]", "value": 0.0623, "unit": "h⁻¹"},
      {"measurement": "Cmax, arithmetic mean", "setting": "[3]", "value": 0.951, "unit": "ng/mL"},
      {"measurement": "Tmax, median", "setting": "[3]", "value": 6.0, "unit": "h"},
      {"measurement": "λz, arithmetic mean", "setting": "[3]", "value": 0.0445, "unit": "h⁻¹"},
      {"measurement": "AUC0-Tlast, Pairwise Comparison Ratio Fed/Fasted", "setting": "[4]", "value": 145.6, "unit": "%"},
      {"measurement": "AUC0-∞, Pairwise Comparison Ratio Fed/Fasted", "setting": "[4]", "value": 141.3, "unit": "%"},
      {"measurement": "Cmax, Pairwise Comparison Ratio Fed/Fasted", "setting": "[4]", "value": 114.6, "unit": "%"},
      {"measurement": "increase in AUC0-Tlast under fed conditions compared to fasted conditions", "setting": "single 6 milligram dose", "value": 46, "unit": "%"},
      {"measurement": "mean CL/F lower in the fed state compared to the fasted state", "setting": "single 6 milligram dose", "value": 43, "unit": "%"},
      {"measurement": "mean Vd/F lower in the fed state compared to the fasted state", "setting": "single 6 milligram dose", "value": 14, "unit": "%"},
      {"measurement": "time postdose by which all subjects had detectable concentrations", "setting": "single 6 milligram dose", "value": "≤ 90", "unit": "min"},
      {"measurement": "time postdose at which mean plasma concentrations reach Cmax", "setting": "single 6 milligram dose, fasted state (Treatment A)", "value": 3.0, "unit": "h"},
      {"measurement": "time postdose at which mean plasma concentrations reach Cmax", "setting": "single 6 milligram dose, fed state (Treatment B)", "value": 6.0, "unit": "h"},
      {"measurement": "AUC0-Tlast, Geometric LS Mean", "setting": "[5]", "value": 9.194, "unit": "ng·h/mL"},
      {"measurement": "AUC0-∞, Geometric LS Mean", "setting": "[5]", "value": 10.72, "unit": "ng·h/mL"},
      {"measurement": "Cmax, Geometric LS Mean", "setting": "[5]", "value": 0.717, "unit": "ng/mL"},
      {"measurement": "CL/F, arithmetic mean", "setting": "single 6 milligram doxepin tablet, fasted (N = 15)", "value": 837, "unit": "L/h"},
      {"measurement": "AUC0-Tlast, Geometric LS Mean", "setting": "[6]", "value": 13.39, "unit": "ng·h/mL"},
      {"measurement": "AUC0-∞, Geometric LS Mean", "setting": "[6]", "value": 15.14, "unit": "ng·h/mL"},
      {"measurement": "Cmax, Geometric LS Mean", "setting": "[6]", "value": 0.822, "unit": "ng/mL"},
      {"measurement": "CL/F, arithmetic mean", "setting": "single 6 milligram doxepin tablet, fed (N = 16)", "value": 477, "unit": "L/h"},
      {"measurement": "Cmax", "setting": "clinical", "value": 0.854, "unit": "ng/mL"},
      {"measurement": "Tmax", "setting": "clinical", "value": 3, "unit": "h"}
    ]}
  ]
}
